From ChEMBL document CHEMBL3507680, “University of Dundee, Gates Library screen for HepG2 cell viability”

Test: Human HepG2 cell viability assay in 384 well format
Assay type: toxicity, cell-based
Set-up: dose 125 nL, time 70.5 hour; concentration not given beside the values
Settings: HepG2 cells, read-out: Inhibition

Compound	cytotoxicity at 70.5 h [%]
Cc1nc(C2CCCN2Cc2cc(Cl)c3c(c2)OCO3)no1 (configuration not stated)	-4.26
CC(C)=CCS(=O)(=O)Cc1nc(C(C)C)no1	-11.6
Cc1nc2cc(C(=O)N(CCN(C)C)CCN(C)C)ccc2n1C	-7.57
CN(C)c1nccc(N(C)Cc2ncnn2C)n1	-3.04
Cc1nc(CN2CCCN(C(=O)c3ccn(C)c(=O)c3)CC2)cs1	30.7
CNC(=O)NC(C)c1nc(-c2ccccc2)c[nH]1 (configuration not stated)	-3.67
CN(CCC#N)C(=O)CN(C1CC1)C1CCc2ccccc21 (configuration not stated)	0.586
Cc1nc(CCNC(=O)NC(C)c2ccc3c(c2)OCCO3)cs1 (configuration not stated)	-3.72
CC(NC(=O)CCS(=O)(=O)C1CCCC1)c1nc(-c2ccccc2)c[nH]1 (configuration not stated)	-3.16
COc1ccccc1CNC(=O)CNc1ccccc1C(C)=O	-1.58
NC(=O)C1CCCN1C1CCN(C(=O)c2cccc3c2OCO3)CC1 (configuration not stated)	-0.518
CCOc1ccc(C(F)(F)F)cc1NC(=O)N1CCNC(=O)C1	-1.6
COCCN1CC(C(=O)Nc2ccc3c(c2)CCC(=O)N3C)CC1=O (configuration not stated)	0.117
CC(C)(C)CC(=O)NS(=O)(=O)c1ccc(F)cc1C(F)(F)F	-1.73
COCCS(=O)(=O)NC(C)c1ccccc1Cl (configuration not stated)	-2.47
O=C(CCN1CCOC1=O)N(Cc1ccncc1)CC1CCCO1 (configuration not stated)	4.43
O=C(NCCC1CCN(CC(F)(F)F)CC1)C1COCCO1 (configuration not stated)	0.242
CC(C)C1CN(C(=O)c2ccn(C)c(=O)c2)c2ccccc2N1 (configuration not stated)	-0.488
CCOc1ccc(C(F)(F)F)cc1NC(=O)N1CCC(C(N)=O)CC1	-4.57
O=C(Nc1cccn(Cc2ccc(F)cc2)c1=O)c1csnn1	-0.164
CC1CN(Cc2ccccc2)CCCN1CCS(C)(=O)=O (configuration not stated)	-2.05
Cc1n[nH]c(C2CN(Cc3csc(C4CC4)n3)CCO2)n1 (configuration not stated)	-7.97
CC(Nc1cccc(Oc2ccc(C#N)cn2)c1)C(=O)NC1CC1 (configuration not stated)	-6.13
Cc1nc(-c2ccc(Cl)s2)sc1C(=O)O	1.47

Compound	cytotoxicity at 70.5 h [%]
NC(=O)c1ccc(S(=O)(=O)NCCc2ccccn2)cc1	1.11
CNC(=O)c1ccc(S(=O)(=O)NCCc2ccccn2)cc1	1.59
CC(CN1CCOCC1)NC(=O)c1cccc2cn[nH]c12 (configuration not stated)	-3.84
c1ccc2sc(NCC3(N4CCOCC4)CCSC3)nc2c1 (configuration not stated)	-4.14
COc1ncccc1CNC(=O)C1CC(=O)N(C)C1 (configuration not stated)	0.32
CC(NC(=O)c1ccc(CS(C)(=O)=O)o1)c1ccc(F)c(F)c1 (configuration not stated)	-3.42
Cc1ccc(NCc2ncc(C(C)(C)C)o2)c(Cl)c1	1.61
Cc1cc(NCCS(C)(=O)=O)nc2ccccc12	-1.98
CS(=O)(=O)CCOCCNc1ccc(Br)cn1	-3.34
N#Cc1ccc(-c2nnc(CSCCN3CCOCC3)o2)cc1	-5.77
OC1CCN(Cc2ccc(CNc3ccc(Cl)cn3)cc2)CC1	-0.577
Cc1n[nH]c(C)c1CNC(=O)N(Cc1ccccc1)CC(C)(C)O	-3.61
CNC(=O)c1c(C)cccc1NCc1nnc(C2CC2)o1	-2.15
Cc1cc(NCCCNS(C)(=O)=O)nc2ccccc12	2.5
CCc1cnc(CCNC(=O)N2CCCC(c3ncc[nH]3)C2)s1 (configuration not stated)	1.32
Cc1ncc(COc2cccc3c2NC(=O)CO3)s1	14.5
Clc1ccccc1-c1nnc(CSCCN2CCOCC2)o1	-2.19
CC(C)c1nc(COc2cccc3c2NC(=O)CO3)cs1	13.8
CCc1nnc2n1CCN(CC(O)CN1CCC(C)CC1)C2 (configuration not stated)	2.99
CNC(=O)c1c(C)cccc1NCc1noc(C2CC2)n1	-2.54
CC(C)(C)c1cnc(CNc2cccc(Cn3cnnc3)c2)o1	-2.54
CCC(CC)CNCC1(S(C)(=O)=O)CCOCC1	-3.95
Cc1cnc(CNC(=O)N(Cc2ccccc2)CC(C)(C)O)s1	-3.13
Cc1nc(CNC(=O)N(Cc2ccccc2)CC(C)(C)O)oc1C	-3.06

Compound	cytotoxicity at 70.5 h [%]
CCc1cnc(CNC(=O)N2CCCC(c3ncc[nH]3)C2)s1 (configuration not stated)	-4.75
CC(NCCN1CCC(N(C)C)CC1)c1ccc(Cl)s1 (configuration not stated)	14.9
O=C(CN1CCOCC1CC(=O)c1ccco1)NCc1ccccn1 (configuration not stated)	2.07
CC(C)NC(=O)CN(C1CC1)C(C)C1CC1 (configuration not stated)	-3.55
CSC(C)(C)CNC(=O)NCc1cccc(-n2ccnc2)c1	-12.4
Cc1ccccc1CN(C)CC(O)COCc1ccccc1Cl (configuration not stated)	21.6
O=S(=O)(Cc1ccccc1)NCc1nnc2n1CCC2	-22.1
CC(=O)c1ccc(-n2c(C)cn(CCS(C)(=O)=O)c2=O)cc1	-11.2
CC(=O)c1ccc(-n2c(C)cn(CCC#N)c2=O)cc1	22.1
Cc1cccc(N2CCN(C(=O)CCc3ccsc3)C(C)C2)n1 (configuration not stated)	-23.2
CN(Cc1nnc(C2CCC2)o1)C(C(N)=O)c1cccc(F)c1 (configuration not stated)	-1.86
Cc1cccc(N2CCN(C(=O)Cc3ccccc3O)C(C)C2)n1 (configuration not stated)	-1.34
COCCNC(=O)NCc1cccc(-n2ccnc2)c1	-13.7
CC(=O)c1c(F)cccc1NCC(O)C(C)(C)C (configuration not stated)	-11.2
O=C(Cn1cc(-n2cccc2)cn1)NCC1CCC1	-10.7
COCCCn1ccc(NS(=O)(=O)c2cc(F)c(C)cc2F)n1	-12.2
COc1cccc(CC(=O)NC2CCCc3cn[nH]c32)c1 (configuration not stated)	-0.729
O=S1(=O)CCN2C(=N1)Oc1ccc(Cl)cc12	23.7
Cc1cccc(N2CCN(C(=O)CC3(O)CCCC3)C(C)C2)n1 (configuration not stated)	0.326
Cc1ccc(CCCC(=O)N2CCCC(CS(N)(=O)=O)C2)s1 (configuration not stated)	-5.56
CC(C)(C#N)c1ccccc1CN(CCO)Cc1ccsc1	-7.26
CCOc1ccc(CN2C(=O)CC3(CCCC3)C2=O)nc1	17.6
CCOc1ccc(CN2C(=O)CC(C)(C)C2=O)nc1	2.3
O=C(CNC(=O)C1CC1)NCC1CCCC1	4.06

Compound	cytotoxicity at 70.5 h [%]
CCC1CN(C(=O)COc2ccc(C(=O)NC3CC3)cc2)CCO1 (configuration not stated)	-2.32
CN(C)C(=O)C1CN(Cc2ccc(C#N)cc2F)c2ccccc2O1 (configuration not stated)	-0.947
CC(Cn1cccn1)NC(=O)NCCCN1CCc2ccccc2C1 (configuration not stated)	14.2
CC(C)(C)OC(=O)N1CSC[C@@H]1C(=O)NCc1ccncc1	-2.13
CC(CC(=O)Nc1ncn(CC(=O)N2CCCCCC2)n1)C1CC1 (configuration not stated)	0.138
CC(C)(C)CC(=O)N1CSCC1C(=O)NCc1cccc(C#N)c1 (configuration not stated)	15.4
CCCSCC(=O)Nc1ncn(CC(=O)N2CCCCCC2)n1	-1.09
CCc1noc(CN(C)CCC(=O)Nc2ccc(Cl)cc2)n1	-0.958
CCn1c(CN2CCOC(Cn3cncn3)C2)nc2cc(F)ccc21 (configuration not stated)	0.647
CCOc1cc(C(=O)NS(C)(=O)=O)cc(-c2ccccc2)c1OC	0.968
CCc1cc(CNC(=O)N2Cc3ccccc3N(C)CC2C)on1 (configuration not stated)	3.84
Cc1cc(C(C)(O)CNC(=O)OC(C)(C)C)c(C)o1 (configuration not stated)	0.912
O=S(=O)(Nc1ncccc1F)c1cc(Cl)cc2c1OCC2	6.97
CCCS(=O)(=O)NC(=O)c1ccc(CC)o1	2.47
CCc1ccc(CN2CCC3(CC(C(=O)NCC(C)C)=NO3)C2)o1 (configuration not stated)	-7.77
O=C(Cc1ccccc1)N1CCC2(CC1)CC(Nc1cnccn1)CO2 (configuration not stated)	-8.13
c1ccn(Cc2nnc3n2CCCN(c2cnccn2)C3)c1	16
CC(C)CS(=O)(=O)N1C[C@H]2C[C@H](C(=O)N3CCOCC3)[C@@H](C1)O2	13.9
Cc1cccc(CN2CCc3onc(CN(C)C)c3C2)n1	0.439
NC(=O)c1nc2c(s1)CCN(C(=O)Nc1ccccc1)CC2	9.18
O=C(c1cscn1)N1CCc2ncnc(-c3ccncc3)c2CC1	-2.35
O=C1C[C@H]2[C@H](CCN2C(=O)c2ccno2)N1CC1CC1	-4.81
CCN(CC)C(=O)c1nc2c(s1)CCN(C(=O)Nc1ccccc1)CC2	5.97
O=C1N(Cc2cccc(F)c2)CCC12CCCN(c1ncc(F)cn1)C2 (configuration not stated)	-5.64

Compound	cytotoxicity at 70.5 h [%]
CS(=O)(=O)NC[C@H]1OC[C@@H]2CN(Cc3cccnc3)CC[C@@H]21	-2.64
CN(C)Cc1noc2c1CN(Cc1ccc[nH]1)CC2	-1.45
CC(C)n1nc(CN2CCCC2=O)c2c1CN(C(=O)c1ccc[nH]1)C2	-5.63
CC(=O)N1CCC2(CC1)CNc1c(F)cccc12	-6.53
COCC(=O)N1CCc2ccccc2C12CCNCC2	18.5
CCOC(=O)N1CCc2ccccc2C12CCNCC2	-2.47
O=C(C1CC1)N1CCc2ccccc2C12CCNCC2	-1.81
C1CCC(CN2Cc3nnn(CC4CC4)c3C(COCC3CC3)C2)C1 (configuration not stated)	-8.05
O=C(N1CCOCC1)[C@@]12CCO[C@@H]1CCN(Cc1cccc(F)c1)C2	-8.34
Cn1ccnc1CN1CCC2(CC1)CCN(c1ccccc1)C2=O	27.2
Cc1cccc(CN2CCc3onc(CO)c3C2)n1	5.71
O=C1N(Cc2cccnc2)CCC12CCCN(c1ncc(F)cn1)C2 (configuration not stated)	-3.96
O=C([C@@H]1CC[C@@H]2[C@@H](CCN2c2ccncn2)O1)N1CCCCO1	-0.768
Cn1ccc(C(=O)N2CCC3(CCN3c3ncccn3)C2)n1 (configuration not stated)	-1.24
CCc1cnc(N2CC[C@H]3[C@@H]2CCC(=O)N3c2ccccc2)nc1	14.1
c1csc(CN2C[C@H](OCC3CC3)[C@H]3COC[C@H]32)n1	-3.74
CN(C)C(=O)CN1CCOCC2(C1)CN(c1ncc(F)cn1)CCO2 (configuration not stated)	-10.2
COCC1CN(c2ccc(C)nn2)Cc2cnn(C)c21 (configuration not stated)	-7.14
O=S(=O)(C1CC1)N1CCC2(CC1)CN(Cc1ccccn1)CCO2	14.8
Cc1cnc(N2CCO[C@@H]3CC(COCc4cccnc4)C[C@H]32)nc1 (some centres not stated)	-0.9
c1csc(CN2Cc3nc(CN4CCCC4)oc3C2)c1	-1.36
